# From patent US6872738B1, “Product comprising at least a no synthase inhibiting substance associated with at least a phospholipase a2 inhibiting substance” (Societe de Conseils de Recherches et D'Applications …, priority 1999, dated 2005)
# Where “and” joins values, the source holds several entries; their conditions need not be identical. Identical values can stand only once.
# Tests used:
# Assay in all cases: carrageenan-induced rat's paw edema
# Type in all cases: in vivo, Male Sprague Dawley rats
# [1] = system: carrageenan-induced rat's paw edema; details: for % inflammation: 30 minutes before 1% carrageenan, paw volume 3 hours after injection, 8 rats; for protection of the animal from the edema caused by carrageenan (in words): ip, doses of the groups of the respective example
# Method: (§1) The activity of the compounds of the invention was evaluated in vivo on a model of carrageenan-induced rat's paw edema.
# (§2) Male Sprague Dawley rats (Charles River) weighing 170 to 180 g on the day of the experiment are kept indoors for 5 to 8 days under animal husbandry conditions and are starved for 18 hours on a mesh floor before and during the experiment. The groups are constituted by 8 animals. The products are administered by intraperitoneal route (ip, 2 ml/kg), 30 minutes before the 1% Carrageenan is injected into the sole of the rats' rear right paw. The volume of the paw corresponding to the edema is measured using a water plethysmometer (Ugo Basile, APELEX) before the injection of carrageenan (t0) and 3 hours after the injection. The volume of the paw allows determination of the % of inflammation ((volume of the paw at time t after carrageenan−volume of the same paw at time to before injection of the products/volume of the paw at time t0)×100). […] This effectiveness is determined statistically by a Student test.
# [2] = system: carrageenan-induced rat's paw edema; set-up: key: IS: insignificant result; ***: highly significant result
# Method: as §1, §2
# [3] = system: carrageenan-induced rat's paw edema; set-up: key: IS: Insignificant result; *: significant result; details: Example 4; 30 mg/kg ip
# Method: as §1, §2
SMILES,protection of the animal from the edema caused by carrageenan (in words) [1],% inflammation ([1]; 30 mg/kg ip),significance of % inflammation (Student test) [3],other results
N=C(N)NN [aminoguanidine],inactive,–,–,"% inflammation ([1]; 400 mg/kg ip): 53.1 ± 3.4% and 60.7 ± 7.5%; significance of % inflammation (Student test) ([2]; Example 2, 400 mg/kg ip): IS; significance of % inflammation (Student test) ([2]; Example 3, 400 mg/kg ip): IS"
O=[N+]([O-])c1cccc2cn[nH]c12 [7-nitroindazole],inactive,–,–,"% inflammation ([1]; 25 mg/kg ip): 72.5 ± 16.1%; significance of % inflammation (Student test) ([2]; Example 1, 25 mg/kg ip): IS"
CCN(CC)CCCC(C)Nc1c2ccc(Cl)cc2nc2ccc(OC)cc12 (stereo not drawn) [mepacrine],inactive,64.5 ± 3.7% and 53.9 ± 3.2% and 51.9 ± 2.7%,IS,"significance of % inflammation (Student test) ([2]; Example 1, 30 mg/kg ip): IS; significance of % inflammation (Student test) ([2]; Example 2, 30 mg/kg ip): IS"
"CN(Cc1nc(-c2cc(C(C)(C)C)c(O)c(C(C)(C)C)c2)cs1)c1ccc(NC(=N)c2cccs2)cc1.Cl [4-[3,5-bis(1,1-dimethylethyl)-4-hydroxyphenyl]-N-{4-[(imino(2-thienyl)methyl)amino]phenyl}-N-methyl-2-thiazolemethanamine hydrochloride]",inactive,52.8 ± 4.0%,IS,–
COc1cccc2c1cc([N+](=O)[O-])c1c(C(=O)O)cc3c(c12)OCO3 [aristolochic acid],inactive,68 ± 5.1%,–,"significance of % inflammation (Student test) ([2]; Example 3, 30 mg/kg ip): IS"
